{"source": "ChEMBL document CHEMBL1129620", "about": "(J Med Chem, 1996)", "key": {"Translocator protein [1]": {"biological_target": "T1, Translocator protein (Rattus norvegicus, UniProt P16257)", "T1 sequence (P16257 whole entry, looked up)": "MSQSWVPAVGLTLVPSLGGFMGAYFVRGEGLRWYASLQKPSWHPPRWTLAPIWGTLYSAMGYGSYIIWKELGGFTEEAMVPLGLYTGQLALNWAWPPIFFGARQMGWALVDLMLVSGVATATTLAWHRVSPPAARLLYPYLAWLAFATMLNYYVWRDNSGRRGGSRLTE", "test": "Binding affinity against peripheral-type benzodiazepine receptor (PBR) from rat cortex homogenate using [3H]-PK 11195 as radioligand"}, "Translocator protein [2]": {"biological_target": "T1, Translocator protein", "test": "Inhibition of binding of [3H]-PK 11195 to peripheral-type benzodiazepine receptor (PBR) from rat cortex homogenate"}, "Translocator protein [3]": {"biological_target": "T1, Translocator protein", "test": "Displacement [3H]-PK 11195 from rat adrenal peripheral-type benzodiazepine receptor (PBR)"}, "Translocator protein [4]": {"biological_target": "T1, Translocator protein", "test": "Displacement of [3H]-Ro- 5-4864 from rat adrenal peripheral-type benzodiazepine receptor (PBR)"}}, "data": [{"smiles": "CC(=O)OCC1=C(c2ccccc2)Oc2ccccc2-n2cccc21", "values": [{"measurement": "Ki", "setting": "Translocator protein [1]", "value": 754, "unit": "nM"}, {"measurement": "IC50", "setting": "Translocator protein [2]", "value": 1930, "unit": "nM"}]}, {"smiles": "CN(C)C(=O)OC1=C(c2ccc(N=[N+]=[N-])cc2)Oc2ccccc2-n2cccc21", "values": [{"measurement": "Ki", "setting": "Translocator protein [3]", "value": 4.8, "unit": "nM"}, {"measurement": "Ki", "setting": "Translocator protein [4]", "value": 3.6, "unit": "nM"}, {"measurement": "Ki", "setting": "Translocator protein [1]", "value": 1.4, "unit": "nM"}, {"measurement": "IC50", "setting": "Translocator protein [2]", "value": 3.6, "unit": "nM"}]}, {"smiles": "CCC1=C(OC(=O)N(C)C)c2cccn2-c2ccccc2O1", "values": [{"measurement": "Ki", "setting": "Translocator protein [1]", "value": 230, "unit": "nM"}, {"measurement": "IC50", "setting": "Translocator protein [2]", "value": 589, "unit": "nM"}]}, {"smiles": "CCN(CC)C(=O)OC1=C(c2ccccc2)Oc2ccccc2-n2cccc21", "values": [{"measurement": "Ki", "setting": "Translocator protein [1]", "value": 0.26, "unit": "nM"}, {"measurement": "IC50", "setting": "Translocator protein [2]", "value": 0.68, "unit": "nM"}]}, {"smiles": "CC(=O)OC1=C(c2ccc(Cl)cc2)Sc2ccccc2-n2cccc21", "values": [{"measurement": "Ki", "setting": "Translocator protein [1]", "value": 11.7, "unit": "nM"}]}, {"smiles": "CC(=O)OC1=C(c2ccccc2)Oc2cc3ccccc3cc2-n2cccc21", "values": [{"measurement": "Ki", "setting": "Translocator protein [1]", "value": 108, "unit": "nM"}, {"measurement": "IC50", "setting": "Translocator protein [2]", "value": 278, "unit": "nM"}]}, {"smiles": "CN(C)C(=O)OC1=C(c2ccccc2)Sc2c(Cl)cccc2-n2cccc21", "values": [{"measurement": "Ki", "setting": "Translocator protein [3]", "value": 2.5, "unit": "nM"}, {"measurement": "Ki", "setting": "Translocator protein [4]", "value": 2.6, "unit": "nM"}, {"measurement": "Ki", "setting": "Translocator protein [1]", "value": 1.8, "unit": "nM"}]}, {"smiles": "CCC1=C(OC(C)=O)c2cccn2-c2ccccc2O1", "values": [{"measurement": "IC50", "setting": "Translocator protein [2]", "value": "> 5000", "unit": "nM"}]}, {"smiles": "COc1ccc(C2=C(OC(=O)c3cccnc3)c3cccn3-c3ccccc3S2)cc1", "values": [{"measurement": "IC50", "setting": "Translocator protein [2]", "value": "> 100000", "unit": "nM"}]}, {"smiles": "CN(C)C(=O)OC1=C(c2ccccc2)Sc2ccccc2-n2cccc21", "values": [{"measurement": "Ki", "setting": "Translocator protein [1]", "value": 3.5, "unit": "nM"}]}, {"smiles": "CC(=O)C1=C(c2ccccc2)Oc2ccccc2-n2cccc21", "values": [{"measurement": "Ki", "setting": "Translocator protein [1]", "value": 25.2, "unit": "nM"}, {"measurement": "IC50", "setting": "Translocator protein [2]", "value": 64.6, "unit": "nM"}]}, {"smiles": "CC(=O)OC1=C(c2ccccc2)Sc2cc(C)ccc2-n2cccc21", "values": [{"measurement": "Ki", "setting": "Translocator protein [1]", "value": 44, "unit": "nM"}]}, {"smiles": "CCN(CC)C(=O)OC1=C(c2ccc(C)cc2)Oc2ccccc2-n2cccc21", "values": [{"measurement": "Ki", "setting": "Translocator protein [3]", "value": 1.9, "unit": "nM"}, {"measurement": "Ki", "setting": "Translocator protein [4]", "value": 1.9, "unit": "nM"}, {"measurement": "Ki", "setting": "Translocator protein [1]", "value": 0.36, "unit": "nM"}, {"measurement": "IC50", "setting": "Translocator protein [2]", "value": 0.94, "unit": "nM"}]}, {"smiles": "O=C(OC1=C(c2ccccc2)Oc2ccccc2-n2cccc21)C1CCCCC1", "values": [{"measurement": "Ki", "setting": "Translocator protein [1]", "value": 32, "unit": "nM"}, {"measurement": "IC50", "setting": "Translocator protein [2]", "value": 81.9, "unit": "nM"}]}, {"smiles": "CC(=O)OC1=C(c2ccc3ccccc3c2)Oc2ccccc2-n2cccc21", "values": [{"measurement": "Ki", "setting": "Translocator protein [1]", "value": 30, "unit": "nM"}, {"measurement": "IC50", "setting": "Translocator protein [2]", "value": 76.6, "unit": "nM"}]}, {"smiles": "CN(C)C(=O)OC1=C(c2ccccc2)Oc2c(Cl)cccc2-n2cccc21", "values": [{"measurement": "Ki", "setting": "Translocator protein [1]", "value": 0.51, "unit": "nM"}, {"measurement": "IC50", "setting": "Translocator protein [2]", "value": 1.3, "unit": "nM"}]}, {"smiles": "CC(=O)OC1=C(c2ccccc2)Sc2ccc(C)cc2-n2cccc21", "values": [{"measurement": "Ki", "setting": "Translocator protein [1]", "value": 263, "unit": "nM"}]}, {"smiles": "CCN(CC)C(=S)OC1=C(c2ccccc2)Oc2ccccc2-n2cccc21", "values": [{"measurement": "Ki", "setting": "Translocator protein [1]", "value": 1.5, "unit": "nM"}, {"measurement": "IC50", "setting": "Translocator protein [2]", "value": 3.8, "unit": "nM"}]}, {"smiles": "CC(=O)OC1=C(c2ccc(C)cc2)Oc2ccccc2-n2cccc21", "values": [{"measurement": "Ki", "setting": "Translocator protein [3]", "value": 2.8, "unit": "nM"}, {"measurement": "Ki", "setting": "Translocator protein [4]", "value": 1.7, "unit": "nM"}, {"measurement": "Ki", "setting": "Translocator protein [1]", "value": 0.91, "unit": "nM"}, {"measurement": "IC50", "setting": "Translocator protein [2]", "value": 2.3, "unit": "nM"}]}, {"smiles": "CC(=O)OC1=C(c2ccccc2)Oc2ccccc2-n2cccc21", "values": [{"measurement": "Ki", "setting": "Translocator protein [1]", "value": 4.7, "unit": "nM"}, {"measurement": "IC50", "setting": "Translocator protein [2]", "value": 12.1, "unit": "nM"}]}, {"smiles": "CC(=O)OC1=C(c2ccccc2)Sc2ccccc2-n2cccc21", "values": [{"measurement": "Ki", "setting": "Translocator protein [1]", "value": 7.6, "unit": "nM"}]}, {"smiles": "COC(=O)C1=C(c2ccccc2)Oc2ccccc2-n2cccc21", "values": [{"measurement": "Ki", "setting": "Translocator protein [1]", "value": 57.8, "unit": "nM"}, {"measurement": "IC50", "setting": "Translocator protein [2]", "value": 148, "unit": "nM"}]}]}
